18 molecules from patent publication US10399972B2, “Tricyclic compounds as inhibitors of mutant IDH enzymes” (Merck Sharp & Dohme Corp., priority 2015, dated 2019) can be followed below.

Broadly, the IC50 is the midpoint of a concentration-inhibition curve. A low value points to higher potency.

Sequence of R132H mutant IDH1 enzyme (O75874 whole entry R132H): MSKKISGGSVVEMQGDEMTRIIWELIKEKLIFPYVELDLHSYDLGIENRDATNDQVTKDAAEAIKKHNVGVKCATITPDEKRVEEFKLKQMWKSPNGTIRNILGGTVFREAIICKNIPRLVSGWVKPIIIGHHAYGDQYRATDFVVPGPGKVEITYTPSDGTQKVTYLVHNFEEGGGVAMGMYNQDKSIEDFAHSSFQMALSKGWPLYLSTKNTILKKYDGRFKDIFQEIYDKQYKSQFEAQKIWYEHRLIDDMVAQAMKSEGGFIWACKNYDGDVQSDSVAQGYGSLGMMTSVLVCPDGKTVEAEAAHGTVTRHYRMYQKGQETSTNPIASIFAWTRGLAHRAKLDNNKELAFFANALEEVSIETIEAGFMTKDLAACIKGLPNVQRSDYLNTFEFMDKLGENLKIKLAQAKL

In the assay the target is R132H mutant IDH1 enzyme (Homo sapiens (Human), UniProt O75874, R132H). Kind of assay: R132H IDH1 Enzymatic Assay. As to conditions: 1.5 nM final, 30 min preincubation, 60 min reaction, Kinase-GLO luminescence. Type of assay: biochemical. The procedure:
R132H IDH1 Enzymatic Assay
Each test compound (10 mM stock in DMSO) is diluted in DMSO to make a 10-point, 3-fold dilution series. 125 nL of each dilution or DMSO alone is dispensed to a 384-well Greiner Lumitrac 200 assay plate using an Echo® Liquid Handler. To each well of the plate is added 20 uL of enzyme in assay buffer or assay buffer alone. Assay buffer consists of 50 mM sodium phosphate, pH 7.0, 50 mM magnesium chloride, 50 mM sodium chloride, and 0.01% (w/v) bovine serum albumin. When present, the R132H mutant IDH1 enzyme is at a working concentration of 1.875 nM (final concentration in assay of 1.5 nM). The assay plate is allowed to incubate for 30 minutes at room temperature and 5 uL of 5× substrate mixture (2.5 uM nicotinamide adenine dinucleotide phosphate, 100 uM adenosine diphosphate, 7.5 mM glyceraldehyde-3-phosphate, 7.5 ug/mL of spinach glyceraldehyde-3-phosphate dehydrogenase, 25 nM phosphoglycerate kinase, and 5 mM alpha-ketoglutarate in assay buffer) is added to all wells. The reaction plate is incubated for 60 minutes followed by addition of 25 uL of Promega Kinase-GLO reagent to all wells and 10-minute incubation.
Luminescence is measured using a PerkinElmer Envision plate reader. The percent activity of each dilution is determined as the ratio of background corrected signal to the background corrected signal of wells receiving only DMSO. IC50 values are determined by fitting percent activity data to a four-parameter logistic dose response equation. The IC50 values of the exemplified compounds are included in Table 8.
For orientation: Kinase-Glo measures the ATP left after a reaction by luminescence.
Take `O=C(C1CCN(CC(F)(F)F)CC1)N1Cc2cc(F)cnc2Nc2ccc(N3CC4CCC3CO4)cc21` (single isomer, unassigned) [Example 8, (8-(2-oxa-5-azabicyclo[2.2.2]octan-5-yl)-3-fluoro-5,11-dihydro-6H-benzo[b]pyrido[2,3-e][1,4]diazepin-6-yl)(1-(2,2,2-trifluoroethyl)piperidin-4-yl)methanone]: the IC50 turned out to be 25.4 nM.
As to `O=C(C1CCN(CC(F)(F)F)CC1)N1Cc2cc(F)cnc2Nc2ccc(N3CC4CCC3CO4)cc21` (single isomer, unassigned) [Example 9, (8-(2-oxa-5-azabicyclo[2.2.2]octan-5-yl)-3-fluoro-5,11-dihydro-6H-benzo[b]pyrido[2,3-e][1,4]diazepin-6-yl)(1-(2,2,2-trifluoroethyl)piperidin-4-yl)methanone], 21.7 nM corresponded to half-maximal inhibition (IC50).
In the case of `CC(C)O[C@H]1CC[C@H](C(=O)N2Cc3cc(F)cnc3Nc3ccc(N4CC5CCC4CO5)cc32)CC1` (single isomer, unassigned) [Example 13, [3-fluoro-8-(2-oxa-5-azabicyclo[2.2.2]oct-5-yl)-5,11-dihydro-6H-pyrido[2,3-b][1,5]benzodiazepin-6-yl][trans-4-(propan-2-yloxy)cyclohexyl]methanone] it was 35.5 nM.
In turn, `CC(C)O[C@H]1CC[C@H](C(=O)N2Cc3cc(F)cnc3Nc3ccc(N4CC5CCC4CO5)cc32)CC1` (single isomer, unassigned) [Example 14, [3-fluoro-8-(2-oxa-5-azabicyclo[2.2.2]oct-5-yl)-5,11-dihydro-6H-pyrido[2,3-b][1,5]benzodiazepin-6-yl][trans-4-(propan-2-yloxy)cyclohexyl]methanone] came in with an IC50 of 44.3 nM.
In the case of `CC(C)O[C@H]1CC[C@H](C(=O)N2Cc3cc(F)cnc3Nc3cc(F)c([C@@H]4COCCO4)cc32)OC1` (single isomer, unassigned) [Example 35] it was 28 nM.
On to `CC(C)O[C@H]1CC[C@H](C(=O)N2Cc3cc(F)cnc3Nc3cc(F)c([C@@H]4COCCO4)cc32)OC1` (single isomer, unassigned) [Example 36], for which the IC50 stood at 23.7 nM.
For the molecule `CC(C)OC1CC[C@H](C(=O)N2Cc3cc(F)cnc3Nc3ccc(N4C[C@@H]5CC[C@H]4CO5)cc32)OC1` (stereo in doubt) [Example 49, (8-((1S,4S)-2-oxa-5-azabicyclo[2.2.2]octan-5-yl)-3-fluoro-5,11-dihydro-6H-benzo[b]pyrido[2,3-e][1,4]diazepin-6-yl)((2R,5R)-5-isopropoxytetrahydro-2H-pyran-2-yl)methanone], the concentration for half-maximal inhibition (IC50) worked out at 12 nM.
With `O=C(C1CCN(CC(F)(F)F)CC1)N1Cc2cc(F)cnc2Nc2cc(F)c(Cl)cc21` [Example 5, (8-Chloro-3,9-difluoro-5,11-dihydro-6H-benzo[b]pyrido[2,3-e][1,4]diazepin-6-yl)(1-(2,2,2-trifluoroethyl)piperidin-4-yl)methanone], the IC50 stood at 11.3 nM.
`O=C(C1CCN(CC(F)(F)F)CC1)N1Cc2cc(F)cnc2Nc2ccc(N3C[C@@H]4C[C@H]3CO4)cc21` [Example 6, (8-((1S,4S)-2-Oxa-5-azabicyclo[2.2.1]heptan-5-yl)-3-fluoro-5,11-dihydro-6H-benzo[b]pyrido[2,3-e][1,4]diazepin-6-yl)(1-(2,2,2-trifluoroethyl)piperidin-4-yl)methanone] gave an IC50 of 12.1 nM.
`O=C(C1CCN(CC(F)(F)F)CC1)N1Cc2cc(F)cnc2Nc2ccc(N3[C@@H]4CO[C@H]5[C@@H]4OC[C@H]53)cc21` [Example 7, (3-fluoro-8-((3R,3aR,6R,6aR)-hexahydro-3,6-epiminofuro[3,2-b]furan-7-yl)-5,11-dihydro-6H-benzo[b]pyrido[2,3-e][1,4]diazepin-6-yl)(1-(2,2,2-trifluoroethyl)piperidin-4-yl)methanone] had an IC50 of 18.5 nM.
Molecule `CO[C@H]1C[C@H]2CC[C@@H](C1)N2c1ccc2c(c1)N(C(=O)C1CCN(CC(F)(F)F)CC1)Cc1cc(F)cnc1N2` [Example 10, (3-fluoro-8-((1R,3r,5S)-3-methoxy-8-azabicyclo[3.2.1]octan-8-yl)-5,11-dihydro-6H-benzo[b]pyrido[2,3-e][1,4]diazepin-6-yl)(1-(2,2,2-trifluoroethyl)piperidin-4-yl)methanone] gave an IC50 of 6.2 nM.
With `C[C@H]1CN(c2ccc3c(c2)N(C(=O)C2CCN(CC(F)(F)F)CC2)Cc2cc(F)cnc2N3)[C@@H](C)CO1` [Example 11, (8-((2S,5S)-2,5-dimethylmorpholino)-3-fluoro-5,11-dihydro-6H-benzo[b]pyrido[2,3-e][1,4]diazepin-6-yl)(1-(2,2,2-trifluoroethyl)piperidin-4-yl)methanone], 23.8 nM corresponded to half-maximal inhibition (IC50).
`O=C(C1CCN(CC(F)(F)F)CC1)N1Cc2cc(F)cnc2Nc2ccc(N3CC4(CCCOC4)C3)cc21` [Example 12, (3-fluoro-8-(6-oxa-2-azaspiro[3.5]nonan-2-yl)-5,11-dihydro-6H-benzo[b]pyrido[2,3-e][1,4]diazepin-6-yl)(1-(2,2,2-trifluoroethyl)piperidin-4-yl)methanone] registered an IC50 of 22.1 nM.
Turning to `O=C(C1CCN(CC(F)(F)F)CC1)N1Cc2cc(F)cnc2Nc2ccc(N3C[C@H]4COC[C@@H](C3)O4)cc21` [Example 15, (8-((1R,5S)-3,9-dioxa-7-azabicyclo[3.3.1]nonan-7-yl)-3-fluoro-5,11-dihydro-6H-benzo[b]pyrido[2,3-e][1,4]diazepin-6-yl)(1-(2,2,2-trifluoroethyl)piperidin-4-yl)methanone], the IC50 worked out at 83.4 nM.
`CC(C)O[C@H]1CC[C@H](C(=O)N2Cc3cc(F)cnc3Nc3ccc(N4CC5(CCCOC5)C4)cc32)CC1` [Example 16, [3-fluoro-8-(6-oxa-2-azaspiro[3.5]non-2-yl)-5,11-dihydro-6H-pyrido[2,3-b][1,5]benzodiazepin-6-yl][trans-4-(propan-2-yloxy)cyclohexyl]methanone] came in with an IC50 of 24 nM.
With `CC(C)O[C@H]1CC[C@H](C(=O)N2Cc3cc(F)cnc3Nc3ccc(N4[C@@H]5CO[C@H]6[C@@H]5OC[C@H]64)cc32)CC1` [Example 17, (3-fluoro-8-((3R,3aR,6R,6aR)-hexahydro-3,6-epiminofuro[3,2-b]furan-7-yl)-5,11-dihydro-6H-benzo[b]pyrido[2,3-e][1,4]diazepin-6-yl)(trans-4-isopropoxycyclohexyl)methanone], it took 28.4 nM to reach half-maximal inhibition (IC50).
On to `CC(C)O[C@H]1CC[C@H](C(=O)N2Cc3cc(F)cnc3Nc3ccc(N4C[C@@H]5C[C@H]4CO5)cc32)CC1` [Example 18, (8-((1S,4S)-2-oxa-5-azabicyclo[2.2.1]heptan-5-yl)-3-fluoro-5,11-dihydro-6H-benzo[b]pyrido[2,3-e][1,4]diazepin-6-yl)(trans-4-isopropoxycyclohexyl)methanone], for which the IC50 worked out at 8.6 nM.
Molecule `CC(C)O[C@H]1CC[C@@H](C(=O)N2Cc3cc(F)cnc3Nc3ccc(N4C[C@@H]5C[C@H]4CO5)cc32)CC1` [Example 19, (8-((1S,4S)-2-oxa-5-azabicyclo[2.2.1]heptan-5-yl)-3-fluoro-5,11-dihydro-6H-benzo[b]pyrido[2,3-e][1,4]diazepin-6-yl)(cis-4-isopropoxycyclohexyl)methanone] had an IC50 of 6 nM.
